Source: US6376540B1, “Furan nitrone compounds” (Centaur Pharmaceuticals, Inc., priority 1996, dated 2002)

Experiments:
Fas^1pr mutation mice = experiment: Learning deficit in autoimmune mice, active avoidance T-maze; assay type: in vivo
Procedure: Male MRL/MpJ controls and Fas^1pr mutation mice were either dosed orally with 1% methylcellulose (“MC”) or with 100 mg/kg of N-isopropyl-α-(2-sulfofuran-5-yl)nitrone sodium salt (prepared in Example 1 above)(“test compound”) in 1% methylcellulose for 9-10 weeks. Following dosing, animals of approximately 4 months of age were tested in an active avoidance T-maze. In the one day test, animals were analyzed for acquisition to avoid shock within the first five trials of the test.

female Lewis rats = experiment: Prevention of weight loss in the EAE model; assay type: in vivo, rat; details: 100 mg/kg po once a day, weighed daily
Procedure: Acclimated female Lewis rats, (Harlan; 200-250 g) were used in this experiment since this strain of rat is genetically highly susceptible to EAE. In the experiment, 100 mg/kg of N-isopropyl-α-(2-sulfofuran-5-yl)nitrone sodium salt (prepared in Example 1 above) or a vehicle alone (control) was administered po once a day from days 4 to 18. On day 1, the rats received an injection of 100 μg of MBP peptide, from guinea pig brain, plus 500 μg of H37RA Mycobacterium in 0.10 ml complete Freund's adjuvant divided equally between the two hind foot-pads.
To determine if the furan nitrones of formula I prevented such weight loss, the animals in the EAE model described in Example 27 above were weighed daily.

rats = experiment: N-nitro-L-arginine-induced spatial learning deficit; assay type: in vivo, rat; details: 10 mg/kg 30 min before each of nine doses of N-nitro-L-arginine (100 mg/kg)
Description: Treatment of rats with N-nitro-L-arginine, a nitric oxide synthase inhibitor, is known to cause a deficit in spatial learning. See, for example, G. A. Bohme et al., (1993) PNAS, 90:9191-9194. Rats treated with N-nitro-L-arginine wander aimlessly throughout their enclosure whereas untreated rats spend most of their time in the quadrant in which they are initially placed and stay away from the open area in the middle of the enclosure. This N-nitro-L-arginine-induced spatial learning deficit is used as a model for learning deficits caused by Alzheimer's disease and other dementias.
In this experiment, 10 mg/kg of N-isopropyl-α-(2-sulfofuran-5-yl)nitrone sodium salt (prepared in Example 1 above) or a control was administered 30 min before each of nine doses of N-nitro-L-arginine (100 mg/kg. iip.). The wanderings of the rats were then monitored. […] In contrast, rats treated with N-nitro-L-arginine and N-isopropyl-α-(2-sulfofuran-5-yl)nitrone sodium salt show a preference for the area of the enclosure into which they were first placed and rarely cross the center of the enclosure as illustrated in FIG. 3C. This behavior is essentially the same as rats treated with a saline control (i.e., without N-nitroL-arginine)(see FIG. 3A).

Male Sprague-Dawley rats = experiment: Locomotor impairment due to Aβ(25-35), apomorphine-induced circling; assay type: in vivo, rat; details: one hour before and three hours post Aβ injection, apomorphine 0.5 mg/kg s.c. one week after
Procedure: Male Sprague-Dawley rats (250-400 g) were given an ipsilateral injection of 20 μg of Aβ(25-35) into their substantia nigra. Prior to the injection, the rats were fasted overnight and then each received an oral treatment of N-isopropyl-α-(2-sulfofuran-5-yl)nitrone sodium salt (prepared in Example 1 above)(10-100 mg/kg) dissolved in aqueous 1% methyl cellulose or the vehicle alone, one hour before and three hours post the Aβ-peptide stereotaxic injection. One week after treatment, the rats were dosed s.c. with 0.5 mg/kg apomorphine (dissolved in 0.1% vitamin C in isotonic saline) and the circling reflex was monitored using a Rotorat computerized behavioral monitoring apparatus for the time period between 15 and 30 minutes of being placed in the arena. Impairment of the animals due to Aβ-peptide was determined by measuring the number of rotations over the 15 minute period. A higher number of rotations per period indicates more physical impairment.

[1] = test system: rat permanent middle cerebral artery occlusion (MCAO) model; experiment: Rat permanent middle cerebral artery occlusion (MCAO) stroke model; assay type: in vivo
Procedure: A rat permanent middle cerebral artery occlusion (MCAO) model was used to determine stroke treatment efficacy. MCAO is a representative model of acute CNS disorders. See, for example, M. D. Ginsberg et al., “Rodent Models of Cerebral Ischemia” (1989) Stroke, 20:1627-1642. In this stroke model, the middle cerebral artery was permanently occluded via cauterization to produce a focal stroke. N-isopropyl-α-(2-sulfofuran-5-yl)nitrone, sodium salt (prepared in Example 1 above) was then administered as a 10 mg/kg i.v. bolus dose three hours post MCAO through a catheter surgically implanted in the jugular vein. Two days post MCAO, the rats were sacrificed and the extent of brain damage assessed using tetrazolium staining (TTC staining) followed by computer image analysis to quantitate infarct volumes, i.e., the regions of dead tissue. The mean infarct volume for rats treated with the test compound was 24.7 mm^3 whereas the mean infarct volume for rats not treated with the test compound was 36.0 mm^3. […] Thus, N-isopropyl-α-(2-sulfofuran-5-yl)nitrone, sodium salt reduced the mean infarct volume of a stroke by 32% when administered three hours post stroke compared to controls.

[2] = Free radical trapping, DCF oxidation, ferrous iron system; assay type: biochemical; details: 100 μM test compound, 100 μM FeSO4, 50 μM DCF in MEM, 37° C., 2 hrs
Procedure: Dichlorofluorescein (DCF) is a compound that fluoresces when oxidized by reactive oxygen species (ROS), such as hydroxyl, peroxyl, or alkoxyl free radicals. Test compounds were evaluated for their ability to scavenge radicals by determining their capacity to prevent the DCF oxidation in a radical generating environment. Two radical generating systems were used: (i) ferrous iron and (ii) tert-butyl hydroperoxide. When ferrous iron is placed in normoxic solution, it autooxidizes to produce ROS in the form of hydroxyl radicals, superoxide anion free radicals, and hydrogen peroxide. Similarly, when tert-butyl hydroperoxide is placed in non-chelated media, trace metals catalyze its oxidation to yield alkoxy, peroxyl, and alkyl free radicals.
In this assay, either 100 μM FeSO4 or 25 μM tert-butyl hydroperoxide were mixed with 50 μM DCF and 100 μM of the test compound in MEM and the mixture was incubated at 37° C. for 2 hrs. The fluorescence wavelengths measured were 485 nm for excitation and 530 nm for emission. In these tests, N-isopropyl-α-(2-sulfofuran-5-yl)nitrone sodium salt (prepared in Example 1 above) reduced fluorescence by 20% in the Fe^+2 assay and by 13% in the tert-butyl hydroperoxide assay. In comparison, a known free radical trap, N-tert-butyl-α-phenylnitrone (PBN) reduced fluorescence by 48% in the Fe^+2 assay and by 9% in the tert-butyl hydroperoxide assay.

CC(C)[N+]([O-])=Cc1ccc(S(=O)(=O)O)o1 [Example 1, N-Isopropyl-α-(2-sulfofuran-5-yl)nitrone]
protection in acquisition learning deficit compared to Fas mutated animals receiving only 1% methylcellulose (Fas^1pr mutation mice; 100 mg/kg orally for 9-10 weeks, two experiments combined (n=14-15)): 50% | Mean Acquisition Values (Maximum score of 5.0) (Fas^1pr mutation mice; Fas^1pr mice, 100 mg/kg orally in 1% methylcellulose for 9-10 weeks, first five trials): Mean = 1.467 | weight change (female Lewis rats): normal or above normal weight gain | spatial learning deficit caused by N-nitro-L-arginine (rats): prevents the spatial learning deficit | Rotations Over 15 Minute Period (Male Sprague-Dawley rats; Aβ(25-35) + 10 mg/kg oral): 9 | Rotations Over 15 Minute Period (Male Sprague-Dawley rats; Aβ(25-35) + 100 mg/kg oral): 6 | mean infarct volume ([1]; 10 mg/kg i.v. bolus three hours post MCAO, two days post MCAO, TTC staining): 24.7 mm^3 | reduction of mean infarct volume compared to controls ([1]; 10 mg/kg i.v. bolus three hours post stroke): 32% | reduced fluorescence in the Fe^+2 assay [2]: 20%
